# Results published in patent US10681909B2, “Herbicidal triazoles” (FMC Corporation, priority 2014, dated 2020).
# Tests used:
# [1] = tested on: pigweed; assay: Test A postemergence; type: in vivo, Amaranthus retroflexus; settings: 0 to 100 scale (0 no effect, 100 complete control), approx. 10 d
# In short: (§1)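 For preemergence, seeds were sown in a loam soil-sand blend and given a directed soil spray of test chemical in a non-phytotoxic solvent mixture with surfactant. For postemergence, plants in pots of the same blend were sprayed with the same formulation at the one- to two-leaf stage, 2 to 10 cm tall.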
# [2] = tested on: pigweed; assay: Test C postemergence; type: in vivo, Amaranthus retroflexus
# In short: (§2)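 Surfactant-containing, non-phytotoxic solvent formulations of each compound were applied either preemergence to seeds in a loam soil–sand blend or postemergence to plants 2 to 18 cm tall (1- to 4-leaf stage). Postemergence plants were grown in peat moss–vermiculite medium.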
# [3] = tested on: foxtail, giant; assay: Test C postemergence; type: in vivo, Setaria faberii
# In short: as §2
# [4] = tested on: barnyardgrass; assay: Test B flooded paddy test; type: in vivo, Echinochloa crus-galli; settings: 250 g ai/ha, applied to paddy water at 2-leaf stage, visual rating after 13 to 15 d, scale 0 (no effect) to 100 (complete control)
# In short: (§3)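 Pots were flooded to 3 cm above the soil at treatment, and compounds were applied directly into the paddy water. That depth was held throughout. After 13 to 15 d in a greenhouse, plants were rated visually against untreated controls.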
# [5] = tested on: kochia; assay: Test C postemergence; type: in vivo, Kochia scoparia
# In short: as §2
# [6] = tested on: chickweed; assay: Test C postemergence; type: in vivo, Stellaria media
# In short: as §2
# [7] = tested on: barnyardgrass; assay: Test A postemergence; type: in vivo, Echinochloa crus-galli; settings: 0 to 100 scale (0 no effect, 100 complete control), approx. 10 d
# In short: as §1
# [8] = tested on: morningglory; assay: Test C postemergence; type: in vivo, Ipomoea coccinea
# In short: as §2
# [9] = tested on: lambsquarters; assay: Test C postemergence; type: in vivo, Chenopodium album
# In short: as §2
# [10] = tested on: crabgrass, large; assay: Test C postemergence; type: in vivo, Digitaria sanguinalis
# In short: as §2
# [11] = tested on: johnsongrass; assay: Test C postemergence; type: in vivo, Sorghum halepense
# In short: as §2
# [12] = tested on: foxtail, giant; assay: Test A preemergence; type: in vivo, Setaria faberii; settings: 0 to 100 scale (0 no effect, 100 complete control)
# In short: as §1
# [13] = tested on: wheat (winter wheat); assay: Test C postemergence; type: in vivo, Triticum aestivum
# In short: as §2
# [14] = tested on: oat, wild; assay: Test C postemergence; type: in vivo, Avena fatua
# In short: as §2
# [15] = tested on: rice; assay: Test B flooded paddy test; type: in vivo, Oryza sativa; settings: 250 g ai/ha, applied to paddy water at 2-leaf stage, visual rating after 13 to 15 d, scale 0 (no effect) to 100 (complete control)
# In short: as §3
# [16] = tested on: corn; assay: Test A postemergence; type: in vivo, Zea mays; settings: 0 to 100 scale (0 no effect, 100 complete control), approx. 10 d
# In short: as §1
# [17] = tested on: oilseed rape; assay: Test C postemergence; type: in vivo, Brassica napus
# In short: as §2
# [18] = tested on: ragweed; assay: Test C postemergence; type: in vivo, Ambrosia elatior
# In short: as §2
# [19] = tested on: nutsedge, yellow; assay: Test C postemergence; type: in vivo, Cyperus esculentus
# In short: as §2
# [20] = tested on: velvetleaf; assay: Test C postemergence; type: in vivo, Abutilon theophrasti
# In short: as §2
structure (smiles),measurement,setting,value
FC(F)(F)COc1nc(-c2ccc(Cl)cc2)nn1Cc1ccnc(C(F)(F)F)c1 [Compound 31],"Plant response rating, Pigweed",[1]; 125 g ai/ha,100
same,"Plant response rating, Pigweed",[1]; 500 g ai/ha,100
same,Plant response rating (scale of 0 to 100 where 0 is no effect and 100 is complete control),[2]; 31 g ai/ha,95
same,Plant response rating (scale of 0 to 100 where 0 is no effect and 100 is complete control),[2]; 62 g ai/ha,98
same,Plant response rating (scale of 0 to 100 where 0 is no effect and 100 is complete control),[2]; 125 g ai/ha,100
same,Plant response rating (scale of 0 to 100 where 0 is no effect and 100 is complete control),[2]; 250 g ai/ha,98
same,Plant response rating (scale of 0 to 100 where 0 is no effect and 100 is complete control),[3]; 31 g ai/ha,15
same,Plant response rating (scale of 0 to 100 where 0 is no effect and 100 is complete control),[3]; 62 g ai/ha,35
same,Plant response rating (scale of 0 to 100 where 0 is no effect and 100 is complete control),[3]; 125 g ai/ha,40
same,Plant response rating (scale of 0 to 100 where 0 is no effect and 100 is complete control),[3]; 250 g ai/ha,40
same,"Plant response rating, Barnyardgrass, Flood",[4],40
same,Plant response rating (scale of 0 to 100 where 0 is no effect and 100 is complete control),[5]; 31 g ai/ha,90
same,Plant response rating (scale of 0 to 100 where 0 is no effect and 100 is complete control),[5]; 62 g ai/ha,90
same,Plant response rating (scale of 0 to 100 where 0 is no effect and 100 is complete control),[5]; 125 g ai/ha,90
same,Plant response rating (scale of 0 to 100 where 0 is no effect and 100 is complete control),[5]; 250 g ai/ha,90
same,Plant response rating (scale of 0 to 100 where 0 is no effect and 100 is complete control),[6]; 31 g ai/ha,90
same,Plant response rating (scale of 0 to 100 where 0 is no effect and 100 is complete control),[6]; 62 g ai/ha,95
same,Plant response rating (scale of 0 to 100 where 0 is no effect and 100 is complete control),[6]; 125 g ai/ha,95
same,Plant response rating (scale of 0 to 100 where 0 is no effect and 100 is complete control),[6]; 250 g ai/ha,95
same,"Plant response rating, Barnyardgrass",[7]; 125 g ai/ha,50
same,"Plant response rating, Barnyardgrass",[7]; 500 g ai/ha,90
same,Plant response rating (scale of 0 to 100 where 0 is no effect and 100 is complete control),[8]; 31 g ai/ha,95
same,Plant response rating (scale of 0 to 100 where 0 is no effect and 100 is complete control),[8]; 62 g ai/ha,60
same,Plant response rating (scale of 0 to 100 where 0 is no effect and 100 is complete control),[8]; 125 g ai/ha,75
same,Plant response rating (scale of 0 to 100 where 0 is no effect and 100 is complete control),[8]; 250 g ai/ha,100
same,Plant response rating (scale of 0 to 100 where 0 is no effect and 100 is complete control),[9]; 31 g ai/ha,98
same,Plant response rating (scale of 0 to 100 where 0 is no effect and 100 is complete control),[9]; 62 g ai/ha,100
same,Plant response rating (scale of 0 to 100 where 0 is no effect and 100 is complete control),[9]; 125 g ai/ha,100
same,Plant response rating (scale of 0 to 100 where 0 is no effect and 100 is complete control),[9]; 250 g ai/ha,100
same,Plant response rating (scale of 0 to 100 where 0 is no effect and 100 is complete control),[10]; 31 g ai/ha,20
same,Plant response rating (scale of 0 to 100 where 0 is no effect and 100 is complete control),[10]; 62 g ai/ha,35
same,Plant response rating (scale of 0 to 100 where 0 is no effect and 100 is complete control),[10]; 125 g ai/ha,60
same,Plant response rating (scale of 0 to 100 where 0 is no effect and 100 is complete control),[10]; 250 g ai/ha,80
same,Plant response rating (scale of 0 to 100 where 0 is no effect and 100 is complete control),[11]; 31 g ai/ha,35
same,Plant response rating (scale of 0 to 100 where 0 is no effect and 100 is complete control),[11]; 62 g ai/ha,25
same,Plant response rating (scale of 0 to 100 where 0 is no effect and 100 is complete control),[11]; 125 g ai/ha,40
same,Plant response rating (scale of 0 to 100 where 0 is no effect and 100 is complete control),[11]; 250 g ai/ha,70
same,"Plant response rating, Foxtail, Giant",[12]; 125 g ai/ha,100
same,"Plant response rating, Foxtail, Giant","[12]; 500 g ai/ha, approx. 10 d",100
same,Plant response rating (scale of 0 to 100 where 0 is no effect and 100 is complete control),[13]; 31 g ai/ha,5
same,Plant response rating (scale of 0 to 100 where 0 is no effect and 100 is complete control),[13]; 62 g ai/ha,5
same,Plant response rating (scale of 0 to 100 where 0 is no effect and 100 is complete control),[13]; 125 g ai/ha,10
same,Plant response rating (scale of 0 to 100 where 0 is no effect and 100 is complete control),[13]; 250 g ai/ha,20
same,Plant response rating (scale of 0 to 100 where 0 is no effect and 100 is complete control),[14]; 31 g ai/ha,30
same,Plant response rating (scale of 0 to 100 where 0 is no effect and 100 is complete control),[14]; 62 g ai/ha,35
same,Plant response rating (scale of 0 to 100 where 0 is no effect and 100 is complete control),[14]; 125 g ai/ha,80
same,Plant response rating (scale of 0 to 100 where 0 is no effect and 100 is complete control),[14]; 250 g ai/ha,80
same,"Plant response rating, Rice, Flood",[15],35
same,"Plant response rating, Corn",[16]; 125 g ai/ha,20
same,"Plant response rating, Corn",[16]; 500 g ai/ha,30
same,Plant response rating (scale of 0 to 100 where 0 is no effect and 100 is complete control),"[17]; Oilsee Rape, 250 g ai/ha",90
same,Plant response rating (scale of 0 to 100 where 0 is no effect and 100 is complete control),"[17]; Oilseed Rape, 31 g ai/ha",85
same,Plant response rating (scale of 0 to 100 where 0 is no effect and 100 is complete control),"[17]; Oilseed Rape, 62 g ai/ha",90
same,Plant response rating (scale of 0 to 100 where 0 is no effect and 100 is complete control),"[17]; Oilseed Rape, 125 g ai/ha",85
same,Plant response rating (scale of 0 to 100 where 0 is no effect and 100 is complete control),[18]; 31 g ai/ha,70
same,Plant response rating (scale of 0 to 100 where 0 is no effect and 100 is complete control),[18]; 62 g ai/ha,75
same,Plant response rating (scale of 0 to 100 where 0 is no effect and 100 is complete control),[18]; 125 g ai/ha,85
same,Plant response rating (scale of 0 to 100 where 0 is no effect and 100 is complete control),[18]; 250 g ai/ha,100
same,Plant response rating (scale of 0 to 100 where 0 is no effect and 100 is complete control),[19]; 31 g ai/ha,20
same,Plant response rating (scale of 0 to 100 where 0 is no effect and 100 is complete control),[19]; 62 g ai/ha,30
same,Plant response rating (scale of 0 to 100 where 0 is no effect and 100 is complete control),[19]; 125 g ai/ha,30
same,Plant response rating (scale of 0 to 100 where 0 is no effect and 100 is complete control),[19]; 250 g ai/ha,35
same,Plant response rating (scale of 0 to 100 where 0 is no effect and 100 is complete control),[20]; 31 g ai/ha,45
same,Plant response rating (scale of 0 to 100 where 0 is no effect and 100 is complete control),[20]; 62 g ai/ha,65
same,Plant response rating (scale of 0 to 100 where 0 is no effect and 100 is complete control),[20]; 125 g ai/ha,65
same,Plant response rating (scale of 0 to 100 where 0 is no effect and 100 is complete control),[20]; 250 g ai/ha,75
